One assay deals with Activin receptor type-1 (Homo sapiens, UniProt Q04771). The experiment in a line: Navigating the Kinome. Panel member name: ACVR1. It is filed as functional.
The target in assay [1] is Platelet-derived growth factor receptor beta (Homo sapiens, UniProt P09619). The format is functional.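 Further: value comes from a kinome panel, with PDGFRB tested as one panel member.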
Assay [2] concerns the target Dual specificity mitogen-activated protein kinase kinase 1 (Homo sapiens, UniProt Q02750). The experiment in a line: Navigating the Kinome. Panel member name: MAP2K1. The format is functional.
The target of assay [3] is Mitogen-activated protein kinase 14 (Homo sapiens, UniProt Q16539). The format is functional.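 Further: part of a kinome-wide panel, MAPK14 entry.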
The target of assay [4] is Rho-associated protein kinase 1 (Homo sapiens, UniProt Q13464). The format is functional.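 Further: measured within a broad kinome-wide panel profiling many kinases.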
Assay [5] has as its target Leucine-rich repeat serine/threonine-protein kinase 2 (Homo sapiens, UniProt Q5S007). The format is functional.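 Further: value from a broad kinome-wide panel profiling study in which LRRK2 was one of the kinases tested.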
In assay [6] the target is Proto-oncogene tyrosine-protein kinase receptor Ret (Homo sapiens, UniProt P07949). It is filed as functional.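 Further: measured within a kinome-wide profiling panel, RET as the panel member.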
In assay [7] the target is Testis-specific serine/threonine-protein kinase 1 (Homo sapiens, UniProt Q9BXA7). The format is functional.
Assay [8] has as its target cGMP-dependent protein kinase 1 (Homo sapiens, UniProt Q13976). It is filed as functional.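 Further: value from a kinome panel screen with PRKG1 as the panel member.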
A further assay has as its target Ephrin type-A receptor 2 (Homo sapiens, UniProt P29317). The format is functional.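 Further: EPHA2 tested as one member of a kinome-wide kinase panel.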
The next assay addresses Misshapen-like kinase 1 (Homo sapiens, UniProt Q8N4C8). The format is functional.
Assay [9] has as its target Serine/threonine-protein kinase PLK3 (Homo sapiens, UniProt Q9H4B4). The format is functional.
Assay [10] deals with Ribosomal protein S6 kinase beta-1 (Homo sapiens, UniProt P23443). The format is functional.
Assay [11] deals with Homeodomain-interacting protein kinase 4 (Homo sapiens, UniProt Q8NE63). It is filed as functional.
Assay [12] concerns the target Serine/threonine-protein kinase 17A (Homo sapiens, UniProt Q9UEE5). The format is functional.
For assay [13], the target named is STE20-like serine/threonine-protein kinase (Homo sapiens, UniProt Q9H2G2). The format is functional.
In assay [14] the target is Casein kinase I isoform gamma-1 (Homo sapiens, UniProt Q9HCP0). It is filed as functional.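 Further: measured as the CSNK1G1 member of a kinome profiling panel.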
Assay [15] addresses Serine/threonine-protein kinase N2 (Homo sapiens, UniProt Q16513). The format is functional.
In assay [16] the target is Tyrosine-protein kinase Fer (Homo sapiens, UniProt P16591). It is filed as functional.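 Further: FER tested as one member of a kinome panel.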
The target in assay [17] is Lymphokine-activated killer T-cell-originated protein kinase (Homo sapiens, UniProt Q96KB5). It is filed as functional.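 Further: value comes from a kinase panel screen in which TOPK was one of the panel members.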
Assay [18] deals with T1, Mannose-6-phosphate isomerase (Homo sapiens, UniProt P34949).
T1 sequence (P34949 whole entry): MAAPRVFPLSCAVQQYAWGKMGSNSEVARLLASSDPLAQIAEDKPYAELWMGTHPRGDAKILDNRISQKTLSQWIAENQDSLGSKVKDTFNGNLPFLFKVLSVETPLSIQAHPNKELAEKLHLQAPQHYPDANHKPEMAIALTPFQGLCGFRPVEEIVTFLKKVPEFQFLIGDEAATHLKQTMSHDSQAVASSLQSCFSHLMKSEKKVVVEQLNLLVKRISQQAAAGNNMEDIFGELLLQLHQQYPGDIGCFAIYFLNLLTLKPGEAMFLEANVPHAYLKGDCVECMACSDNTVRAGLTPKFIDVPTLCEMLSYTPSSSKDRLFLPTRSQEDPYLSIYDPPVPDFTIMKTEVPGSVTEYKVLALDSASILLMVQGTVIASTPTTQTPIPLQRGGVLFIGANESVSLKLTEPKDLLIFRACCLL
Kind of assay: human PMI inhibitors, high substrate, primary screen, biochemical, fluorescence intensity, high mannose 6-phosphate (AID 1220).

In assay [19] the target is T2, Sentrin-specific protease 7 (Homo sapiens, UniProt Q9BQF6).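 Further: Luminescence-based dose-response confirmation of ultra-high-throughput screening hits, measuring inhibition of SENP7.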
T2 sequence (Q9BQF6 whole entry): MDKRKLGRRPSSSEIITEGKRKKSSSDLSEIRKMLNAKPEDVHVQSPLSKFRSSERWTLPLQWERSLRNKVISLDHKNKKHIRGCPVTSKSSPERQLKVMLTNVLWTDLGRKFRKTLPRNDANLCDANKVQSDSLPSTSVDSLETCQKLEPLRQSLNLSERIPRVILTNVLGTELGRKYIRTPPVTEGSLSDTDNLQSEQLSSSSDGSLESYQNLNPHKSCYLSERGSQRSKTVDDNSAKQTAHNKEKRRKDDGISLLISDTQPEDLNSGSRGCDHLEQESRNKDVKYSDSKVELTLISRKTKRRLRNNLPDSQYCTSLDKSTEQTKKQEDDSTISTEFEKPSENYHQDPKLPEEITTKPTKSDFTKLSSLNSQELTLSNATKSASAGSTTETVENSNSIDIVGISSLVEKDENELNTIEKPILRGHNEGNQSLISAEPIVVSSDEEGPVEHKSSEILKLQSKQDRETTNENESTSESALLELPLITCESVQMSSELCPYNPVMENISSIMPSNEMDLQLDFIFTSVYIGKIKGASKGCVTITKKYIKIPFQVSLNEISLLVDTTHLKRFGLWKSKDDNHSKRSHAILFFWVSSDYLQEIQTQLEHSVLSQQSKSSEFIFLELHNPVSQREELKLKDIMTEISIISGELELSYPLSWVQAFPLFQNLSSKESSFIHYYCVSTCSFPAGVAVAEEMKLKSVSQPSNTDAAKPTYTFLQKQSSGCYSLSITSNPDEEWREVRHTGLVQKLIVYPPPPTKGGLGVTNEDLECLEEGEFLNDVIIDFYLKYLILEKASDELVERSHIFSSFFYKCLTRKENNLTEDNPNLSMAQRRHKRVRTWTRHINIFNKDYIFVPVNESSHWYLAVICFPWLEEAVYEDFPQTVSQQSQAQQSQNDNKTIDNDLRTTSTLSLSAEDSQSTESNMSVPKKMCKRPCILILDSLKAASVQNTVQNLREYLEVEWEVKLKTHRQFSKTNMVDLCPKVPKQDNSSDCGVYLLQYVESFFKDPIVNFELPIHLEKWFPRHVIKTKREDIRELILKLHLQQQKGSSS
The format is functional.

The target of assay [20] is T3, Sentrin-specific protease 8 (Homo sapiens, UniProt Q96LD8).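 Further: luminescence read-out of SENP8 inhibition, dose-response confirmation following an ultra-high-throughput screen.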
T3 sequence (Q96LD8 whole entry): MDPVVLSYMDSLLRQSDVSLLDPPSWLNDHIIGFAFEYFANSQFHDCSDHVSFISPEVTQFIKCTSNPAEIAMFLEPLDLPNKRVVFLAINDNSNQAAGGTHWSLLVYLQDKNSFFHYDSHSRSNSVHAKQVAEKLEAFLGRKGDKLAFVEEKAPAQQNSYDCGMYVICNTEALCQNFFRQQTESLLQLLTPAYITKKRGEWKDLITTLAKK
The format is functional.

This note sets out measurements from ChEMBL document CHEMBL1201862, “PubChem BioAssay data set” (2004).

The source made the active and inactive calls.

Chain of Ribosomal protein S6 kinase beta-1 (P23443 whole entry): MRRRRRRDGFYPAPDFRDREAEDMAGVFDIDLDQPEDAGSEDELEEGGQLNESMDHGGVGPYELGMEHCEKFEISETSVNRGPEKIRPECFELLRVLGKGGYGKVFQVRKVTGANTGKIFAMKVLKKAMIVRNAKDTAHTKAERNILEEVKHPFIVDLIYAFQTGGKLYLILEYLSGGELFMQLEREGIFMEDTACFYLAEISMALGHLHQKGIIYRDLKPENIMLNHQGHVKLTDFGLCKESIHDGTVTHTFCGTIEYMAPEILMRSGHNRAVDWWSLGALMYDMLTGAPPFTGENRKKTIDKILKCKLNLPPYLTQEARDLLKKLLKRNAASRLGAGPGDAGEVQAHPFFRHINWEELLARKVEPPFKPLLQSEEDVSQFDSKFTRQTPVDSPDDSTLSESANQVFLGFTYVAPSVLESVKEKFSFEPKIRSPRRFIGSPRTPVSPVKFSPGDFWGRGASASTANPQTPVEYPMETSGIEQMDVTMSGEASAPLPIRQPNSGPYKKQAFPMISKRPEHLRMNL
Chain of Serine/threonine-protein kinase PLK3 (Q9H4B4 whole entry): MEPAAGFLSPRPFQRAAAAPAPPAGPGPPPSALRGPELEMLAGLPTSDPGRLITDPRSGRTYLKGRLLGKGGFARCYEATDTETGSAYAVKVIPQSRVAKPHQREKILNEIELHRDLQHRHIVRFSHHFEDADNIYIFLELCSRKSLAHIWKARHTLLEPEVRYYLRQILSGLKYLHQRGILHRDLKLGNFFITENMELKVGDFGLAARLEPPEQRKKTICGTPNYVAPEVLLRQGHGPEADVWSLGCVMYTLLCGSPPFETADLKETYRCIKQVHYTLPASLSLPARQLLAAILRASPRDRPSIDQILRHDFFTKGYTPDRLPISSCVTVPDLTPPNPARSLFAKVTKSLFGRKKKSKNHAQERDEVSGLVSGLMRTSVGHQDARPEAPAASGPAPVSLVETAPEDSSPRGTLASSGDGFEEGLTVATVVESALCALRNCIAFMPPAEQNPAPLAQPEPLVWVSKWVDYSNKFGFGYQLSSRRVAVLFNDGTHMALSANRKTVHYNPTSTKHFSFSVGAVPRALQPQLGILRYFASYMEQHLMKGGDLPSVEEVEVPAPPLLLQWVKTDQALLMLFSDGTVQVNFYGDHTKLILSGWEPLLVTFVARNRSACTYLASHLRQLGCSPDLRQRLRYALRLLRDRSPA
Chain of Serine/threonine-protein kinase 17A (Q9UEE5 whole entry): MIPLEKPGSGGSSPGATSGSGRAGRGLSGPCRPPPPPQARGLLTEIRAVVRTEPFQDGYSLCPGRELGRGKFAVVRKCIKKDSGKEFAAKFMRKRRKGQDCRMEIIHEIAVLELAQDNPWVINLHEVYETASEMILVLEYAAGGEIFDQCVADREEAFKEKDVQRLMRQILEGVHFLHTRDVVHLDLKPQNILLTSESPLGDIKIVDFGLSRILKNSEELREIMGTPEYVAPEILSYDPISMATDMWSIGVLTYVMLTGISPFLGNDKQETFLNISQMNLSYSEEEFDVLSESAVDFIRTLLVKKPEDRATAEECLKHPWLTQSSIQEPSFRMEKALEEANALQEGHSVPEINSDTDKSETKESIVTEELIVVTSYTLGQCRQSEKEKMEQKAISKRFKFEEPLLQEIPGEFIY
Chain of Platelet-derived growth factor receptor beta (P09619 whole entry): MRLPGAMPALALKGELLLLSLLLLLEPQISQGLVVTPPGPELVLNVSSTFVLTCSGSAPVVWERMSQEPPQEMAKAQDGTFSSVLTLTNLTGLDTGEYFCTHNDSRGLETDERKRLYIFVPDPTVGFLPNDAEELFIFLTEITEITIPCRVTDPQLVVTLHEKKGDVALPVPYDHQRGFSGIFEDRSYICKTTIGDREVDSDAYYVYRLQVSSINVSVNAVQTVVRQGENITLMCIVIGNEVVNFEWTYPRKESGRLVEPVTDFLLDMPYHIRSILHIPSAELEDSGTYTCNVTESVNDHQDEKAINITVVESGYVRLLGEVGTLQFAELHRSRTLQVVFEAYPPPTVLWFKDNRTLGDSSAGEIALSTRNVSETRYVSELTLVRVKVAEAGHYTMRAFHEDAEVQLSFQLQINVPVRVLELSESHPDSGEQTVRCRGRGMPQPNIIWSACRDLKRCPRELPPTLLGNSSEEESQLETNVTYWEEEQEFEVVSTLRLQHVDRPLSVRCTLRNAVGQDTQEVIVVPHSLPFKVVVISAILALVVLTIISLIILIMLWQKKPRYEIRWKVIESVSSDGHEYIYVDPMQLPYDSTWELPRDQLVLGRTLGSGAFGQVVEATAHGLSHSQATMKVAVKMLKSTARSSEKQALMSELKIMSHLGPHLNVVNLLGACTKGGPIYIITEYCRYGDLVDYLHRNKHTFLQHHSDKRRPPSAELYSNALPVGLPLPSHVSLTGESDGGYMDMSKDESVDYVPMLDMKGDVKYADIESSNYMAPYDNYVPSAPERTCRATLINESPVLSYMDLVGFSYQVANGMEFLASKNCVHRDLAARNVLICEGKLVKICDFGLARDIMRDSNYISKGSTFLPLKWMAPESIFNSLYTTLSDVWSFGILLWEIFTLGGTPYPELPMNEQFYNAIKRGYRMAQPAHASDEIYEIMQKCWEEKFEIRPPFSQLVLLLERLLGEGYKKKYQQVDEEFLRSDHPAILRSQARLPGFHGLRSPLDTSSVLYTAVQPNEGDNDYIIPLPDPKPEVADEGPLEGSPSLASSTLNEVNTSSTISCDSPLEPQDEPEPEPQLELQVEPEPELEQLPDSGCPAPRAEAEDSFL
Chain of Serine/threonine-protein kinase N2 (Q16513 whole entry): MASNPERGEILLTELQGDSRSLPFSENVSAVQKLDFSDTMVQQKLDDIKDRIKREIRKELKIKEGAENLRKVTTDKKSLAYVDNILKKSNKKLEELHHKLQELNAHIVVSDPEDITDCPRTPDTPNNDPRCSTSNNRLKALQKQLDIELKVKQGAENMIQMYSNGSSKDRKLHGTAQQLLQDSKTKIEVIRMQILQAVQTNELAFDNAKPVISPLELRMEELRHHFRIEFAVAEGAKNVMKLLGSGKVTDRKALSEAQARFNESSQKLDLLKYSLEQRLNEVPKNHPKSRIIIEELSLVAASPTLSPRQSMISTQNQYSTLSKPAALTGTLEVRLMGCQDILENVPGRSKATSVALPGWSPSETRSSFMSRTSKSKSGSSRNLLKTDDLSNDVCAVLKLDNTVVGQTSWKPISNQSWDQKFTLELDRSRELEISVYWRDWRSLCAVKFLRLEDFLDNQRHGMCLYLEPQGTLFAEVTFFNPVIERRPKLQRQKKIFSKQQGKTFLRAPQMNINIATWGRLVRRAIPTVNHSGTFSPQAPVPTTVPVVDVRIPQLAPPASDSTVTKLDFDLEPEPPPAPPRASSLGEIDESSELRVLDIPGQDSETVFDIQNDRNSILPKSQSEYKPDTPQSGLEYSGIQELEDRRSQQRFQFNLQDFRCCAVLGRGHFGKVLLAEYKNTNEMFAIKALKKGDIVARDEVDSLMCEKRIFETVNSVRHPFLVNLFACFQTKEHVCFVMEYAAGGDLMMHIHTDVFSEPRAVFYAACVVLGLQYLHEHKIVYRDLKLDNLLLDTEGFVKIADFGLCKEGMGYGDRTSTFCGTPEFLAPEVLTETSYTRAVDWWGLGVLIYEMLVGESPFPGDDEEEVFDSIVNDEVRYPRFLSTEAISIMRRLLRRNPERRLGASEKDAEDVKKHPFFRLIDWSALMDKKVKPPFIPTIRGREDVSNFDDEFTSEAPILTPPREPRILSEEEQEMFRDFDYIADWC
Chain of Testis-specific serine/threonine-protein kinase 1 (Q9BXA7 whole entry): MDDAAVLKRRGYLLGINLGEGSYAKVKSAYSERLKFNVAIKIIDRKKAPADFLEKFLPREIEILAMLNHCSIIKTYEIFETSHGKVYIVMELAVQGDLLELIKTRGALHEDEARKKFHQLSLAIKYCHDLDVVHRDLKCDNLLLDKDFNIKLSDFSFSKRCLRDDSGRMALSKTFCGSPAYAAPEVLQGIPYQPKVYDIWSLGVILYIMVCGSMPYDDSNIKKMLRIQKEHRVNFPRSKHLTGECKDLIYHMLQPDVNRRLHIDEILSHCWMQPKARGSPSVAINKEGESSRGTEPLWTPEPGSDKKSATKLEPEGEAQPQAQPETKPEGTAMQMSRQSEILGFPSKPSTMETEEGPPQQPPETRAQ
Chain of Homeodomain-interacting protein kinase 4 (Q8NE63 whole entry): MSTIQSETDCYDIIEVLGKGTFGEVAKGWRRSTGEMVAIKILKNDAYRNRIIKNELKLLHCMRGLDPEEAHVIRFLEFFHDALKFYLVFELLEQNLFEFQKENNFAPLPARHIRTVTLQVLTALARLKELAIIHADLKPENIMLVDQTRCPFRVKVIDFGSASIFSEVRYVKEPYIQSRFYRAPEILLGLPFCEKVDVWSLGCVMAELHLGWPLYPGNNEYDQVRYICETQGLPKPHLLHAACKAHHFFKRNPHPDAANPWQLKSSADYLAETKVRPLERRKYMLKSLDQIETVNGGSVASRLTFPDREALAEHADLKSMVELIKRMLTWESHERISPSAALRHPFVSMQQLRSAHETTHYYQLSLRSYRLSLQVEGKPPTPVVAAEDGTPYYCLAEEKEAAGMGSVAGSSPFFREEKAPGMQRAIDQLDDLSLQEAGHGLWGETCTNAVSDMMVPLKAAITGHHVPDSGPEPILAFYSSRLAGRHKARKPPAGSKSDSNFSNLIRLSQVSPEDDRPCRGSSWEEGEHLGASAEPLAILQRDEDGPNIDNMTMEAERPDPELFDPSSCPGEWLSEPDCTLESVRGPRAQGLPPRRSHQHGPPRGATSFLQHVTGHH
Chain of Lymphokine-activated killer T-cell-originated protein kinase (Q96KB5 whole entry): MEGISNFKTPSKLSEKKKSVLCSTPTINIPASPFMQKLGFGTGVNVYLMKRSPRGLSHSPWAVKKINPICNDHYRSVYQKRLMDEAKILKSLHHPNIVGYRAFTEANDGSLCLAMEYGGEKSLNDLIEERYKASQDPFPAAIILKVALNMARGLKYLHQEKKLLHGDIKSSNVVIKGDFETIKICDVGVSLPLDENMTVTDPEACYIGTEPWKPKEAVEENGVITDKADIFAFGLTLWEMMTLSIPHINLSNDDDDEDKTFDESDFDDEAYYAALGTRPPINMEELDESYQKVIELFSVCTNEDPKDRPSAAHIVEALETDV

In the case of `[2H]C([2H])([2H])Oc1cccc(C(C)NC(=O)c2sc(-c3ccncc3)nc2C)c1` (stereo not drawn), the Ki on Activin receptor type-1 was > 3980 nM (inactive); in assay [1] it was > 2000 nM (inactive); in [2], > 3160 nM (inactive); in [3], > 3980 nM (inactive); in assay [4] it was 12.6 nM (active); in assay [5], > 2510 nM (inactive). In addition, the Ki in assay [6] is > 3160 nM (inactive).
Take `Cc1n[nH]c2ccc(-c3cncc(OCC(N)Cc4ccc(Cl)c(Cl)c4)c3)cc12` (stereo not drawn): the Ki was 100 nM (active) in assay [7]; 7.94 nM (active) in assay [8]; > 3160 nM (inactive) at Ephrin type-A receptor 2; 20 nM (active) on Misshapen-like kinase 1; > 7940 nM (inactive) in assay [9]; 25.1 nM (active) in assay [10]. Also, the Ki in assay [11] is 2510 nM (active); in assay [12], 398 nM (active); in [13], 1580 nM (active); in assay [14], 126 nM (active); in assay [15], 20 nM (active); in assay [16] it was 1260 nM (active). Further, in assay [17], the Ki is 3980 nM (active).
Consider `COc1ccc(-n2c(NC(=O)c3ccco3)c(C#N)c3nc4ccccc4nc32)cc1`, for which the IC50 was > 50000 nM (not active) in [18], 5780 nM (active) in [19] and 7570 nM (active) in [20].
